Data reported in patent US4545993A, “1,2-Benzopyran-6-yl acetic acid compound and pharmaceutical compositions containing said compounds” (priority 1981, dated 1985).

Columns and labels:
[1] = Acute toxicity, oral, number of deaths up to 72 hours; conditions: mouse, in vivo
Experimental: Groups of 10 male dd mice weighing some 18 g, were orally administered 800 mg/Kg of each of the examined drugs and the number of deaths up to 72 hours later was recorded.

[2] = system: pseudopain reactions (dd mice); experiment: Analgesic effects by a modified Haffner method; assay type: in vivo; conditions: oral, with 2 mg/Kg morphine hydrochloride s.c.
Experimental: Groups of 10 dd mice were orally administered the examined drugs and 30 minutes later 2 mg/Kg of morphine hydrochloride, the threshhold dose, was subcutaneously injected. At 15, 30, 45 and 60 minute intervals thereafter, the root of the mouse's tail was squeezed with a Kocher's forcepts.

[3] = system: stretching after acetic acid (male dd mice); experiment: Analgesic effects by acetic acid writhing test; assay type: in vivo; conditions: oral, 0.6% acetic acid i.p.
Experimental: Thirty minutes after the examined drug was orally given, 0.1 ml/10 g of 0.6% acetic acid was intraperitoneally administered to groups of 10 male dd mice weighing some 18 g. The number of stretching was calculated during an observation period of 15 to 20 minutes after acetic acid treatment. The average inhibition rate of stretching among 8 animals was regarded as the inhibition rate of the drug, excluding 2 animals showing maximum and minimum numbers of stretching.

[4] = 800 mg/Kg, oral, male dd mice, up to 72 hours

SMILES	mortality at 72 h [1, 4] [%]	Analgesic effects (modified Haffner method) ([2]; 50 mg/Kg) [%]	Analgesic effects (modified Haffner method) ([2]; 100 mg/Kg) [%]	Analgesic effects (acetic acid writhing test; average inhibition rate of stretching) ([3]; 50 mg/Kg) [%]	Analgesic effects (acetic acid writhing test; average inhibition rate of stretching) ([3]; 100 mg/Kg) [%]	mortality at 72 h ([1]; po, 800 mg/kg) [%]
CC(C(=O)O)c1cc(Cl)c2c(c1)C=CCO2 (centres unmarked) [Compound 4, 2-(8-Chloro-1,2-benzopyran-6-yl)propionic acid]	30	30	55	36	61	
CC(C(=O)O)c1cc(Cl)c2c(c1)CCCO2 (centres unmarked) [Compound 7, 2-(8-Chlorochroman-6-yl)propionic acid]	0					
O=C(O)Cc1cc(Cl)c2c(c1)C=CCO2 [Compound 5, (8-Chloro-1,2-benzopyran-6-yl)acetic acid]		35	70			
CCCCC1C(=O)N(c2ccccc2)N(c2ccccc2)C1=O [Phenylbutazone, reference compound]						60
Cc1c(N(C)C)c(=O)n(-c2ccccc2)n1C [Aminopyrine, reference compound]	80	20	55	18	57	
CC(C(=O)O)c1cc(F)c2c(c1)C=CC(C)(C)O2 (centres unmarked) [Compound 1, 2-(2,2-dimethyl-8-fluoro-1,2-benzopyran-6-yl)propionic acid]	0	40	70	59	76	
CC(C(=O)O)c1ccc2c(c1)C=CC(C)(C)O2 (centres unmarked) [Compound 2, 2-(2,2-Dimethyl-1,2-benzopyran-6-yl)propionic acid]	0	25	50	44	76	
CC(C(=O)O)c1cc(Cl)c2c(c1)CCC(C)(C)O2 (centres unmarked) [Compound 6, 2-(2,2-dimethyl-8-chlorochroman-6-yl)propionic acid]	30	30	60	27	68	
CC(C(=O)O)c1cc(Cl)c2c(c1)C=CC(C)(C)O2 (centres unmarked) [Compound 3, 2-(2,2-Dimethyl-8-chloro-1,2-benzopyran-6-yl)propionic acid]	0	20	65			
